Data set [1] has as its system CT26. Nature of the data set: Antitumor activity against mouse CT26 cells xenografted in BALB/c mouse assessed as tumor growth inhibition at 10 to 30 mg/kg, ip QD and measured upto 9 days. It counts as functional, organism-based. To be noted: dose 10-30 mg/kg, time <= 9.0 day.
Data set [2] in a line: Toxicity in BALB/c mouse xenografted with mouse CT26 cells assessed as body weight loss at 30 mg/kg, ip QD and measured upto 9 days in presence of anti-PD-1 antibody cotreatment at 10 mg/kg,ip BIW. It counts as organism-based. To be noted: in vivo, 216 h, time < 9 day.
Data set [3] is described as follows: Toxicity in BALB/c mouse xenografted with mouse CT26 cells assessed as pathological changes in lung at 30 mg/kg, ip QD by hematoxylin and eosin staining based microscopic analysis. The format is organism-based. To be noted: in vivo.
Data set [4] is described as follows: Toxicity in BALB/c mouse xenografted with mouse CT26 cells assessed as pathological changes in heart at 30 mg/kg, ip QD in presence of anti-PD-1 antibody cotreatment at 10 mg/kg,ip BIW by hematoxylin and eosin staining based microscopic analysis. It counts as organism-based. To be noted: in vivo.
Data set [5] can be described thus: Toxicity in BALB/c mouse xenografted with mouse CT26 cells assessed as pathological changes in liver at 30 mg/kg, ip QD in presence of anti-PD-1 antibody cotreatment at 10 mg/kg,ip BIW by hematoxylin and eosin staining based microscopic analysis. It counts as organism-based. To be noted: in vivo.
Data set [6] is described as follows: Toxicity in BALB/c mouse xenografted with mouse CT26 cells assessed as pathological changes in kidney at 30 mg/kg, ip QD in presence of anti-PD-1 antibody cotreatment at 10 mg/kg,ip BIW by hematoxylin and eosin staining based microscopic analysis. It counts as organism-based. To be noted: in vivo.
Data set [7] is described as follows: Cmax in Sprague-Dawley rat at 21 mg/kg, ip and measured upto 24 hrs by LC-MS analysis. To be noted: in vivo. It counts as ADME, organism-based. Also on record: dose 21 mg/kg, time < 24 hrs, route ip.
In data set [8] the test system is CT26. Nature of the data set: Synergistic antitumor activity in mouse CT26 cells xenografted in BALB/c mouse assessed as increase in GZMB mRNA expression level in tumor at 30 mg/kg, ip QD in presence of anti-PD-1 antibody cotreatment at 10 mg/kg,ip BIW by qRT-PCR analysis. It counts as functional, organism-based.
Data set [9] relates to CT26. Briefly: Synergistic antitumor activity in mouse CT26 cells xenografted in BALB/c mouse assessed as decrease in Foxp3-positive Treg cells in TIME tumor cells at 30 mg/kg, ip QD in presence of anti-PD-1 antibody cotreatment at 10 mg/kg,ip BIW by flow cytomtery. The format is functional, organism-based.
Data set [10] concerns CT26. Nature of the data set: Synergistic antitumor activity in mouse CT26 cells xenografted in BALB/c mouse assessed as decrease in Foxp3 expression in Treg tumor cells at 30 mg/kg, ip QD in presence of anti-PD-1 antibody cotreatment at 10 mg/kg,ip BIW by qRT-PCR analysis. The format is functional, organism-based.
In data set [11] the test system is CT26. To be noted: Mus musculus, BALB/c, dose 30.0 mg/kg, route ip.
Description: In vivo inhibition of Wnt signaling pathway in mouse CT26 cells implanted in BALB/c mouse assessed as reduction in Axin2 mRNA expression level in tumor at 30 mg/kg, ip QD by qRT-PCR analysis

Calls of active or inactive are those of the source. No cut-off for these calls is given here.

One may read the Cmax as the highest concentration seen after dosing. On to `CC(C)c1ccc(-c2cccc(S(=O)(=O)N3CCCC(c4cccc(OC(C)(C)C(=O)NS(=O)(=O)c5ccc(C(F)(F)F)cc5)c4)C3)c2)cc1` (stereo unspecified), for which the Activity result in [1] was “Dose-Dependent Effect”; in [2], “Non-Toxic”; in [3], “Non-Toxic”; in data set [4] it was “Non-Toxic”; in [5], “Non-Toxic”; in [6], “Non-Toxic”. Besides, in data set [7], the highest level (Cmax) was 6.96 µg/mL. For the same compound, the outcome in data set [8], in data set [9] and in data set [10] was Active. Further, the inhibition result in data set [11] is “Active”.
